According to US20220048939A1, “AROMATIC RING COMPOUND” (HAIKOU KAIBAO INDUSTRIAL CO., LTD, priority 2019, published 2022):

What was measured:
[1] = test system: KM mice (tail suspension model of behavioral despair); assay: Tail suspension test after single intragastric (oral) administration; type: in vivo; conditions: tail suspension test 1 h after administration, last 4 min, mean ± SEM
Protocol: (§1) The experimental animals were male SPF grade KM mice purchased from Kunming Medical University, weighed 21-24 g, certificate no. SCXK(Dian)K2015-0002. The experimental animals were bred in individually ventilated cages (IVCs) in animal room in Dianqing Biotechnology, Ltd., Yunnan (facility no. 13-11-078 and 13-11-079; manufacture date: Nov. 24, 2013). The room temperature was controlled at 22-24° C. with humidity at 40-70% and 12-hour light/dark cycle (7:00 am/19:00 pm). The cages and padding were changed twice a week. The raising method was group raising and there were 10 mice accommodated in each cage. The feed was sterilized feed from Jiangsu Xietong Medical Bioengineering, Ltd., certificate no.: (2014)01008. Feed was supplied once daily with free access . Tap water was supplied in boxes with free access.
A. Behavioral testing was performed in different treatment groups (1.0 mg/kg, 5.0 mg/kg, 10.0 mg/kg, 15.0 mg/kg, 30.0 mg/kg) 1 h after intragastric (i.g.) administration of the compound of formula 1;
B. In the negative control group receiving normal saline (NS), the behavioral testing was conducted at the same time;
C. In the positive control group receiving imipramine (IMI; 15 mg/kg), the behavioral testing was conducted at the same time;
Route of administration: The test compound of formula 1, normal saline or imipramine was administered by intragatric administration according to the experimental design.
Time of administration: The animals were accommodated to the experimental environment for 1 hour, administrated by intragatric administration, and subjected to tail suspension test 1 hour after the administration.
Test criterion: The mice were subjected to a 6-minute tail suspension test, and the cumulative time of immobility in the first 2 minutes and the last 4 minutes was recorded. The criterion for immobility is that the mouse stops struggling and remains steady.
(§2) A depression model of behavioral despair, ie. tail suspension model, was used. Animals were accommodated to the company's breeding environment for 1 day. During the adaptation, animals with non-smooth and unclean hair, high alertness or aggressivity were excluded.
(§3) Animals were accommodated to the experimental environment for 1 hour, weighed, and randomized according to the body weight into a normal saline control group, an imipramine control group and treatment groups with different doses.
(§4) In the tail suspension test, animals in all groups were administered with corresponding drugs by a single intragastric administration. 1 h after the administration, tails of mice were fixed with medical tape at about 1-2 cm from the end, such that the mice were hanged in the tail suspension box with the heads about 10 cm above the bottom of the box. The observation started immediately after hanging. In the 6-minute observation, the cumulative time of immobility in the first 2 minutes and the last 4 minutes was recorded. A video was recorded with obviously contrasted background with the hair color of the mice, for example, black background was used for white mice.
(§5) The cumulative time of immobility within the last 4 minutes was compared between the test compound groups and the normal saline group using SPSS 11.0 software. One-way analysis of variance (ANOVA) was used for comparison among multiple groups, and independent sample T test was performed for comparisons in pairs. P <0.05 indicates a statistically significant difference. All statistical diagrams were plotted in mean ±SEM using Origin 8.0 software.

[2] = test system: KM mice (tail suspension model of behavioral despair); assay: Tail suspension test after single intraperitoneal injection; type: in vivo; conditions: tail suspension test 0.5 h after administration, last 4 min, mean ± SEM
Protocol: as §1, with “access.” for “access .”
A. Behavioral testing was performed in different treatment groups (1.0 mg/kg, 5.0 mg/kg, 10.0 mg/kg, 20.0 mg/kg) 0.5 h after intraperitoneal (i.p.) injection of the compound of formula 1;
B. In the control group receiving normal saline (NS), the behavioral testing was conducted at the same time;
C. In the control group receiving imipramine (IMI; 15 mg/kg), the behavioral testing was conducted at the same time;
Route of administration: The test compound of formula 1, normal saline or imipramine was administered by intraperitoneal injection according to the experimental design.
Time of administration: The animals were accommodated to the experimental environment for 1 hour, administrated by intraperitoneal injection and subjected to tail suspension test 0.5 hour after the administration.
Test criterion: The mice were subjected to a 6-minute tail suspension test, and the cumulative time of immobility in the first 2 minutes and the last 4 minutes was recorded. The criterion for immobility was that the mouse stops struggling and remains steady.
as §2, §3
as §4, with “groups for tail suspension test” for “groups”, “intraperitoneal injection. 0.5” for “intragastric administration. 1”
as §5

NMDA receptor = assay: Whole-cell NMDAR current (NMDAR-EPSC) recording in hippocampal CA1 pyramidal cells of brain slices; type: cell-based, mice; conditions: hippocampal CA1 pyramidal cells at +40 mV, last 10 min of 20 min
Protocol: Male C57BL/6 mice, aged 3-9 weeks, were purchased from Beijing Vital River Laboratory Animal Technology Co., Ltd. (Beijing, China). The animals were bred at 23 ±1° C. The room temperature was controlled at 22-24° C. with humidity at 40-70% and 12-hour light/dark cycle (7:00 am/19:00 pm).
A. The baseline whole-cell NMDAR current was recorded in 10 minutes before the compound of formula 1 (0.76, 3.8 mM/L) was dissolved in artificial cerebrospinal fluid (vehicle) and added with the brain slice circulation fluid.
B. An identical volume of artificial cerebrospinal fluid (vehicle) was added with the brain slice circulation fluid.
Treatment: The brain slice circulation fluid was directly added.
Time of treatment: 10 minutes after baseline recording.
Test item: depolarization voltage-induced whole-cell NMDAR receptor currents.
Hippocampal brain slices: The animals were anesthetized with isoflurane and the brains were collected quickly. […]
Whole-cell NMDAR current recording: NMDAR whole cell EPSC recording was performed in hippocampal CA1 pyramidal cells. […] The electrical signal in whole cells was recorded using a Clampfit 10.3 software (Axon Instruments) equipped with an Axopatch-700B amplifier (Axon Instruments, Foster City, Calif.) and a Digiclata 1440A digital-to-analog converter, with filtering set at 2.8 kHz and sampling at 10 kHz. […]

[3] = Solubility in water (description of test compound); type: physicochemical

| Solubility in water [3] | SMILES | Time of immobility (% of NS) ([1]; 1 mg/kg i.g.) | Time of immobility (% of NS) ([1]; 5 mg/kg i.g.) | Time of immobility (% of NS) ([1]; 10 mg/kg i.g.) | Time of immobility (% of NS) ([1]; 15 mg/kg i.g.) | Time of immobility (% of NS) ([1]; 30 mg/kg i.g.) | Time of immobility (% of NS) ([2]; 1 mg/kg i.p.) | Time of immobility (% of NS) ([2]; 5 mg/kg i.p.) | Time of immobility (% of NS) ([2]; 10 mg/kg i.p.) | Time of immobility (% of NS) ([2]; 20 mg/kg i.p.) | NMDAR current (% of Baseline) (NMDA receptor; 0.76 mM/L in circulating artificial cerebrospinal fluid) | NMDAR current (% of Baseline) (NMDA receptor; 3.8 mM/L in circulating artificial cerebrospinal fluid) | Time of immobility (% of NS) ([2]; 15 mg/kg i.p.) |
| --- | --- | --- | --- | --- | --- | --- | --- | --- | --- | --- | --- | --- | --- |
| easily soluble in water | Cc1ccc(O[C@@H]2OC(CO)[C@@H](O)[C@H](O)C2O)cc1O[C@@H]1OC(CO)[C@@H](O)[C@H](O)C1O (some centres unmarked) [Compounds of formula 1] | 87.14 ± 11.27 % of NS | 72.67 ± 7.89 % of NS | 66.86 ± 8.80 % of NS | 68.33 ± 7.17 % of NS | 77.38 ± 6.00 % of NS | 104.02 ± 16.80 % of NS | 72.12 ± 8.57 % of NS | 60.44 ± 7.53 % of NS | 104.66 ± 14.75 % of NS | 108.80 ± 5.86 % of Baseline | 155.53 ± 20.85 % of Baseline |  |
|  | CN(C)CCCN1c2ccccc2CCc2ccccc21 [IMI, imipramine, reference compound] |  |  |  | 58.64 ± 5.42 % of NS |  |  |  |  |  |  |  | 58.12 ± 5.66 % of NS |
